PubChem BioAssay (NCI)
In brackets after ≈: the same amount, converted by molar mass.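 Five compound concentrations were applied to cells in 96-well plates for 48 hours; endpoints were derived by simple linear interpolation of the resulting dose-response curve. The concentration for 50% growth inhibition is given as GI50. At the TGI there is no net growth.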

Tests used:
Test in all cases: NCI-60 cell line screen, 48 h
KM12 colon = test system: KM12 colon
HCC-2998 colon = test system: HCC-2998 colon
MOLT-4 leukemia = test system: MOLT-4 leukemia
HCT-15 colon = test system: HCT-15 colon
IGROV1 ovarian = test system: IGROV1 ovarian
MDA-MB-435 = test system: MDA-MB-435
NCI/ADR-RES ovarian = test system: NCI/ADR-RES ovarian
DU-145 prostate = test system: DU-145 prostate
SN12C renal = test system: SN12C renal
MDA-MB-231 breast = test system: MDA-MB-231 breast

NCCNc1nc(N2CCCC2)c2nc(Cl)c(NCc3ccccc3)nc2n1
TGI (KM12 colon): 2.93 µM | TGI (HCC-2998 colon): 2.88 µM | TGI (MOLT-4 leukemia): 4.48 µM | TGI (HCT-15 colon): 3.84 µM | TGI (IGROV1 ovarian): 4.7 µM | TGI (MDA-MB-435): 3.19 µM | TGI (NCI/ADR-RES ovarian): 33.1 µM | TGI (DU-145 prostate): 3.55 µM | TGI (SN12C renal): 2.92 µM | TGI (MDA-MB-231 breast): 2.87 µM

OCCOCn1cc(Cn2ncc3c(SCc4ccccc4)ncnc32)nn1
TGI (KM12 colon): > 100 µM | TGI (HCC-2998 colon): > 100 µM | TGI (MOLT-4 leukemia): 48.3 µM | TGI (HCT-15 colon): > 100 µM | TGI (IGROV1 ovarian): > 100 µM | TGI (MDA-MB-435): 35.1 µM | TGI (NCI/ADR-RES ovarian): > 100 µM | TGI (DU-145 prostate): > 100 µM | TGI (SN12C renal): > 100 µM | TGI (MDA-MB-231 breast): > 100 µM

COC(=O)C1C(C)N1C (stereo not given)
TGI (KM12 colon): > 100 µM | TGI (HCC-2998 colon): > 100 µM | TGI (MOLT-4 leukemia): > 100 µM | TGI (HCT-15 colon): > 100 µM | TGI (IGROV1 ovarian): > 100 µM | TGI (SN12C renal): > 100 µM

Clc1ccc(Nc2nc(Cl)c3[nH]cnc3n2)cc1Cl
TGI (KM12 colon): 64.7 µM | TGI (HCC-2998 colon): 31.1 µM | TGI (MOLT-4 leukemia): 61.3 µM | TGI (HCT-15 colon): 87.5 µM | TGI (IGROV1 ovarian): > 100 µM | TGI (MDA-MB-435): 80.3 µM | TGI (NCI/ADR-RES ovarian): > 100 µM | TGI (DU-145 prostate): > 100 µM | TGI (SN12C renal): > 100 µM | TGI (MDA-MB-231 breast): 51.9 µM

COc1ccc(/C=C(\C#N)c2nc(N)nc(N3N=C(C)CC3(C)C)n2)c(O)c1
TGI (KM12 colon): 29.2 µM | TGI (HCC-2998 colon): 38.2 µM | TGI (MOLT-4 leukemia): 34.1 µM | TGI (HCT-15 colon): 35.3 µM | TGI (IGROV1 ovarian): 56.4 µM | TGI (MDA-MB-435): 33.1 µM | TGI (NCI/ADR-RES ovarian): 97.3 µM | TGI (DU-145 prostate): 37.7 µM | TGI (SN12C renal): > 100 µM | TGI (MDA-MB-231 breast): 44.8 µM

COc1c2c(cc3c1C(O)N1CC[C@]34[C@H]3O[C@H]3[C@H](OC)C[C@@H]14)OCO2 (stereo not given in full)
TGI (KM12 colon): > 100 µM | TGI (HCC-2998 colon): > 100 µM | TGI (MOLT-4 leukemia): > 100 µM | TGI (HCT-15 colon): > 100 µM | TGI (IGROV1 ovarian): > 100 µM | TGI (MDA-MB-435): > 100 µM | TGI (NCI/ADR-RES ovarian): > 100 µM | TGI (DU-145 prostate): > 100 µM | TGI (SN12C renal): > 100 µM | TGI (MDA-MB-231 breast): > 100 µM

C[C@]12CCC(=O)C=C1CC[C@@H]1[C@@H]2[C@@H](O)C[C@@]2(C)[C@H]1CC[C@]2(O)C(=O)CO
TGI (KM12 colon): > 100 µM | TGI (HCC-2998 colon): > 100 µM | TGI (MOLT-4 leukemia): > 100 µM | TGI (HCT-15 colon): > 100 µM | TGI (IGROV1 ovarian): > 100 µM | TGI (MDA-MB-435): > 100 µM | TGI (NCI/ADR-RES ovarian): > 100 µM | TGI (DU-145 prostate): > 100 µM | TGI (SN12C renal): > 100 µM | TGI (MDA-MB-231 breast): > 100 µM

O=S(=O)(O)c1cccc2c(N=Nc3c(O)ccc4ccccc34)cccc12
TGI (KM12 colon): > 100 µM | TGI (MOLT-4 leukemia): > 100 µM | TGI (HCT-15 colon): > 100 µM | TGI (IGROV1 ovarian): > 100 µM | TGI (MDA-MB-435): > 100 µM | TGI (NCI/ADR-RES ovarian): > 100 µM | TGI (DU-145 prostate): > 100 µM | TGI (SN12C renal): > 100 µM | TGI (MDA-MB-231 breast): > 100 µM

[O-][N+](CCO)(CCO)c1ncnc2nc[nH]c12
TGI (KM12 colon): > 100 µM | TGI (HCC-2998 colon): > 100 µM | TGI (MOLT-4 leukemia): > 100 µM | TGI (HCT-15 colon): > 100 µM | TGI (IGROV1 ovarian): > 100 µM | TGI (MDA-MB-435): > 100 µM | TGI (NCI/ADR-RES ovarian): > 100 µM | TGI (DU-145 prostate): > 100 µM | TGI (SN12C renal): > 100 µM | TGI (MDA-MB-231 breast): > 100 µM

Nc1ccccc1N/C(=C\C(=O)C(Cl)(Cl)Cl)c1ccccc1
TGI (KM12 colon): > 100 µM | TGI (HCC-2998 colon): 34.9 µM | TGI (MOLT-4 leukemia): > 100 µM | TGI (HCT-15 colon): 80.4 µM | TGI (IGROV1 ovarian): 71 µM | TGI (MDA-MB-435): > 100 µM | TGI (NCI/ADR-RES ovarian): > 100 µM | TGI (DU-145 prostate): > 100 µM | TGI (SN12C renal): 45.6 µM | TGI (MDA-MB-231 breast): 36.2 µM

O=C(CCN1CC2CCC(CC2)C1)c1cccs1
TGI (KM12 colon): 40.7 µM | TGI (HCC-2998 colon): 29 µM | TGI (MOLT-4 leukemia): 18.7 µM | TGI (HCT-15 colon): 44.1 µM | TGI (IGROV1 ovarian): 25.8 µM | TGI (MDA-MB-435): 42.3 µM | TGI (NCI/ADR-RES ovarian): 62.1 µM | TGI (DU-145 prostate): 33.8 µM | TGI (SN12C renal): 37.6 µM | TGI (MDA-MB-231 breast): 34.4 µM

O=[n+]1c2c(n([O-])c3ccccc31)-c1cccc3cccc-2c13
TGI (KM12 colon): > 100 µM | TGI (HCC-2998 colon): > 100 µM | TGI (MOLT-4 leukemia): > 100 µM | TGI (HCT-15 colon): > 100 µM | TGI (MDA-MB-435): > 100 µM | TGI (NCI/ADR-RES ovarian): > 100 µM | TGI (DU-145 prostate): > 100 µM | TGI (SN12C renal): > 100 µM | TGI (MDA-MB-231 breast): > 100 µM

O=C1c2cc3c(cc2-c2c1c1ccc(Cl)cc1c(=O)n2C[C@H](O)[C@@H](O)[C@H](O)CO)OCO3
GI50 (KM12 colon): 0.138 µM | TGI (KM12 colon): > 100 µM | GI50 (HCC-2998 colon): 0.0638 µM | TGI (HCC-2998 colon): 0.479 µM | GI50 (MOLT-4 leukemia): < 0.01 µM | TGI (MOLT-4 leukemia): 12.5 µM | GI50 (HCT-15 colon): 0.143 µM | TGI (HCT-15 colon): 1.66 µM | GI50 (IGROV1 ovarian): 0.126 µM | TGI (IGROV1 ovarian): > 100 µM | GI50 (NCI/ADR-RES ovarian): 0.0335 µM | TGI (NCI/ADR-RES ovarian): 1.91 µM | GI50 (DU-145 prostate): 0.0374 µM | TGI (DU-145 prostate): > 100 µM | GI50 (SN12C renal): 0.0473 µM | TGI (SN12C renal): > 100 µM | GI50 (MDA-MB-231 breast): 0.333 µM | TGI (MDA-MB-231 breast): 3.76 µM

CC1(C)CC(=O)C2=C(C1)NC(SSC1=C(C#N)C(c3ccc(F)cc3)C3=C(CC(C)(C)CC3=O)N1)=C(C#N)C2c1ccc(F)cc1 (stereo not given)
GI50 (KM12 colon): 52.9 µg/mL | TGI (KM12 colon): > 150 µg/mL | GI50 (MOLT-4 leukemia): 39.1 µg/mL | TGI (MOLT-4 leukemia): 118 µg/mL | GI50 (HCT-15 colon): 30.3 µg/mL | TGI (HCT-15 colon): 64 µg/mL | GI50 (IGROV1 ovarian): 15 µg/mL | TGI (IGROV1 ovarian): 15 µg/mL | GI50 (MDA-MB-435): 26.2 µg/mL (≈ 40 µM) | TGI (MDA-MB-435): 46.9 µg/mL | GI50 (NCI/ADR-RES ovarian): 40.9 µg/mL | TGI (NCI/ADR-RES ovarian): 128 µg/mL | GI50 (DU-145 prostate): 15 µg/mL | TGI (DU-145 prostate): 15 µg/mL | GI50 (SN12C renal): 27.9 µg/mL | TGI (SN12C renal): 52.1 µg/mL | GI50 (MDA-MB-231 breast): 29 µg/mL | TGI (MDA-MB-231 breast): 51.7 µg/mL
